Reference: patent publication US8003677B2, “2-heteroaryl-pyrrolo[3,4-c]pyrrole derivatives and their use as SCD inhibitors” (Sanofi-Aventis, priority 2007, dated 2011)

Each compound was assayed against T1, SCD1 (Rattus norvegicus, UniProt P07308) (assay: stearoyl-CoA desaturase (SCD1) activity in rat liver microsomes, TLC assay with 1-14C-labeled stearic acid). Conditions: inhibition of SCD1 activity; compound at 10 μM/l; 15 μg rat liver microsomes (male Wistar rats); 37° C., 1 h.
T1 construct: The resuspended microsome fraction was stored at −80° C; from tissue; host or cells: liver microsomes of male Wistar rats fed a carbohydrate-rich, low-fat diet
T1 sequence (P07308 1-358): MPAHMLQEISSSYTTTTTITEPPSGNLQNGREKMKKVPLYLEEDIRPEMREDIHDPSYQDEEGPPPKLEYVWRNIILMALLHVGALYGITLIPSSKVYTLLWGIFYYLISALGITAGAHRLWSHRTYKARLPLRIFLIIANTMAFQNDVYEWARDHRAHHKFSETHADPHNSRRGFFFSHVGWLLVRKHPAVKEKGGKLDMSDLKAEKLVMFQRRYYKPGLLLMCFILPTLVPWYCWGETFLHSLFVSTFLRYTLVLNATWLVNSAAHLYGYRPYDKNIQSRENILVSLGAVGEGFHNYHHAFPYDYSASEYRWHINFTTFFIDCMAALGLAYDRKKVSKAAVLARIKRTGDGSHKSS
Format: biochemical
Protocol: The efficacy of the inventive compounds of the formula I was tested with microsomal enzymes in the following assay system:
The livers of male Wistar rats which (to induce the expression of SCD1) had been fed with a carbohydrate-rich, low-fat diet were homogenized with a Potter tissue homogenizer and differential centrifugation in a buffer which contained 250 mM/l of sucrose and 5 mM/l of HEPES (pH 7.0). The resuspended microsome fraction was stored at −80° C. The stearoyl-CoA desaturase activity was determined in a thin-film chromatography assay with 1-^14C-labeled stearic acid. In short, the particular inventive compounds (in DMSO in a final concentration of 1% [v/v]) were incubated with 15 μg of the rat liver microsomes in 200 μl of assay buffer (6 mM/l of MgCl2, 250 mM/l of sucrose, 150 mM/l of KCl, 40 mM/l of NaF, 100 mM/l of Na2HPO4 (pH7.4), 1.3 mM/l of ATP, 1.5 mM/l of reduced glutathione, 60 uM/l of CoA, 0.33 mM/l of nicotinamide and 0.94 mM/l of NADH) at room temperature for 10 min. 0.5 μCi [1-^14C]-stearic acid (55 mCi/mmol) was added, and the mixture was incubated at 37° C. for 1 h. The radioactively labeled fatty acids were subsequently hydrolyzed at 65° C. with 2.5 M KOH/MeOH:H2O (4:1) for 4 h, protonated with 280 μl of formic acid and extracted with 500 μl of hexane. The TLC plates were immersed into 10% AgNO3 and heat-activated before use. 150 μl of the hexane phase were applied to the plates, and the TLC plates were developed in buffer (chloroform:methanol:acetic acid:water [90:8:1:0.8]) and dried. The plates were read off in a phosphoimager to quantify the SCD1 activity.
The person skilled in the art can modify this assay in various aspects to determine the inhibition of the stearoyl-CoA desaturase activity.

| inhibition at 10 µM [%] | Structure (SMILES) |
| --- | --- |
| 65 | CCOC(=O)c1cnc(N2CC3=C(CN(C(=O)c4ccccc4C(F)(F)F)C3)C2)s1 [Example 1, Ethyl 2-[5-(2-trifluoromethylbenzoyl)-3,4,5,6-tetrahydro-1H-pyrrolo[3,4-c]pyrrol-2-yl]thiazole-5-carboxylate] |
| 31 | O=C(NCCC1CC1)c1cnc(N2CC3=C(CN(C(=O)c4ccccc4C(F)(F)F)C3)C2)s1 [Example 2, N-(2-Cyclopropylethyl)-2-[5-(2-trifluoromethylbenzoyl)-3,4,5,6-tetrahydro-1H-pyrrolo-[3,4-c]pyrrol-2-yl]thiazole-5-carboxamide] |
| 26 | O=C(NCCCc1ccccc1)c1cnc(N2CC3=C(CN(C(=O)c4ccccc4C(F)(F)F)C3)C2)s1 [Example 9, N-(3-Phenylpropyl)-2-[5-(2-trifluoromethylbenzoyl)-3,4,5,6-tetrahydro-1H-pyrrolo[3,4-c]-pyrrol-2-yl]thiazole-5-carboxamide] |
| 100 | CC(C)CCNC(=O)c1ccc(N2CC3=C(CN(C(=O)c4ccccc4C(F)(F)F)C3)C2)nc1 [Example 10, N-(3-Methylbutyl)-6-[5-(2-trifluoromethylbenzoyl)-3,4,5,6-tetrahydro-1H-pyrrolo[3,4-c]-pyrrol-2-yl]nicotinamide] |
| 100 | O=C(NCCc1ccccc1)c1ccc(N2CC3=C(CN(C(=O)c4ccccc4C(F)(F)F)C3)C2)nc1 [Example 13, N-Phenethyl-6-[5-(2-trifluoromethylbenzoyl)-3,4,5,6-tetrahydro-1H-pyrrolo[3,4-c]pyrrole-2-yl]nicotinamide] |
| 100 | O=C(NCCC1CC1)c1ccc(N2CC3=C(CN(C(=O)c4ccccc4C(F)(F)F)C3)C2)nc1 [Example 14, N-(2-Cyclopropylethyl)-6-[5-(2-trifluoromethylbenzoyl)-3,4,5,6-tetrahydro-1H-pyrrolo-[3,4-c]pyrrol-2-yl]nicotinamide] |
| 100 | O=C(NCc1nccs1)c1ccc(N2CC3=C(CN(C(=O)c4ccccc4C(F)(F)F)C3)C2)nc1 [Example 15, N-Thiazol-2-ylmethyl-6-[5-(2-trifluoromethylbenzoyl)-3,4,5,6-tetrahydro-1H-pyrrolo-[3,4-c]pyrrol-2-yl]nicotinamide] |
| 100 | CN(Cc1nccs1)C(=O)c1ccc(N2CC3=C(CN(C(=O)c4ccccc4C(F)(F)F)C3)C2)nc1 [Example 16, N-Methyl-N-thiazol-2-ylmethyl-6-[5-(2-trifluoromethylbenzoyl)-3,4,5,6-tetrahydro-1H-pyrrolo[3,4-c]pyrrol-2-yl]nicotinamide] |
| 97 | O=C(NCC1CC1)c1ccc(N2CC3=C(CN(C(=O)c4ccccc4C(F)(F)F)C3)C2)nc1 [Example 17, N-Cyclopropylmethyl-6-[5-(2-trifluoromethylbenzoyl)-3,4,5,6-tetrahydro-1H-pyrrolo-[3,4-c]pyrrol-2-yl]nicotinamide] |
| 38 | CCC(O)CCNC(=O)c1ccc(N2CC3=C(CN(C(=O)c4cc(OC)ccc4Br)C3)C2)nn1 (centres unmarked) [Example 18, N-(3-Hydroxypentyl)-6-[5-(2-bromo-5-methoxybenzoyl)-3,4,5,6-tetrahydro-1H-pyrrolo-[3,4-c]pyrrol-2-yl]pyridazine-3-carboxamide] |
| 100 | O=C(NCCC1CC1)c1ccc(N2CC3=C(CN(C(=O)c4ccccc4C(F)(F)F)C3)C2)nn1 [Example 19, N-(2-Cyclopropylethyl)-6-[5-(2-trifluoromethylbenzoyl)-3,4,5,6-tetrahydro-1H-pyrrolo-[3,4-c]pyrrol-2-yl]pyridazine-3-carboxamide] |
| 100 | O=C(NCc1cncs1)c1ccc(N2CC3=C(CN(C(=O)c4ccccc4C(F)(F)F)C3)C2)nc1 [Example 20, N-Thiazol-5-ylmethyl-6-[5-(2-trifluoromethylbenzoyl)-3,4,5,6-tetrahydro-1H-pyrrolo-[3,4-c]pyrrol-2-yl]nicotinamide] |
| 100 | O=C(NCC1CCCC1)c1ccc(N2CC3=C(CN(C(=O)c4ccccc4C(F)(F)F)C3)C2)nc1 [Example 21, N-Cyclopentylmethyl-6-[5-(2-trifluoromethylbenzoyl)-3,4,5,6-tetrahydro-1H-pyrrolo-[3,4-c]pyrrol-2-yl]nicotinamide] |
| 100 | O=C(NCCC1CCCC1)c1ccc(N2CC3=C(CN(C(=O)c4ccccc4C(F)(F)F)C3)C2)nc1 [Example 22, N-(2-Cyclopentylethyl)-6-[5-(2-trifluoromethylbenzoyl)-3,4,5,6-tetrahydro-1H-pyrrolo-[3,4-c]pyrrol-2-yl]nicotinamide] |
